From patent US20220000117A1, “METHOD FOR CONTROLLING DISEASES IN SMALL GRAIN CEREALS, SEED OF SMALL GRAIN CEREALS, AND METHOD FOR SUPPRESSING LODGING DAMAGE IN SMALL GRAIN CEREALS” (KUMIAI CHEMICAL INDUSTRY CO., LTD., priority 2019, published 2022)

Assays:
septoria leaf blotch = experiment: Test Example 10: control test of septoria leaf blotch of wheat, cup in greenhouse, inoculated, variety ARKEOS (Tables 15 to 19); assay type: in vivo, Septoria tritici
Description: (§1) Degree of Disease Occurrence=Σ(Index×Number of Leaves of Index)/(4×Number of Investigated Leaves)×100 (1)
Seed of wheat (variety: ARKEOS) was used, and 100 ml of suspension waters each containing the compound shown in Table 15 at an amount shown in Table 15 (synthesis was performed in accordance with a known method, a liquid dissolved in a small amount of DMSO or formulated 10% wettable powder was used) were prepared. Seed having a mass of 1 kg was mixed into the suspension water with a rate shown in Examples of Table 15, and air-dried, and then, 5 seeds were sown in a plastic cup having a diameter of 6 cm containing mixed soil of river sand and horticultural soil and managed in a greenhouse. In Comparative Examples, 20 ml of suspension water of an active ingredient, which had been adjusted to have a concentration shown in Table 15 to 19, was sprayed in a frame of 45 cm×45 cm in which a pot of wheat seedlings was placed (corresponding to 1000 L/ha) 14 days after seeding. On day 14 after seeding, a spore suspension in which conidiospores of septoria leaf blotch are suspended was sprayed and inoculated on leaves of wheat seedlings (after the sprayed liquid was dried in the case of Comparative Examples), a lesion area ratio of septoria leaf blotch in a second leaf was investigated approximately 35 days after seeding according to the criteria in Table 1, and the degree of disease occurrence was calculated by the above calculation formula (1).

powdery mildew = experiment: Test Example 9: control test of wheat powdery mildew, cup in greenhouse, inoculated, Norin No. 61 (Tables 10 to 14); assay type: in vivo, Blumeria graminis; parameters: key to Degree of Disease Occurrence: Σ(index×leaves)/(4×leaves investigated)×100; 0 = no disease, 100 = max
Description: as §1
Seed of wheat (variety: Norin No. 61) was used, and 100 ml of suspension waters each containing the compound shown in Table 10 at an amount shown in […] (synthesis was performed in accordance with a known method, a solution dissolved in DMSO or formulated 10% wettable powder was used) were prepared. The seed having a mass of 1 kg of wheat was mixed into the suspension water with a chemical treated amount shown in Table 10, and air-dried, and then, 5 seeds were sown in a plastic cup having a diameter of 6 cm containing river sand and managed in a greenhouse. In Comparative Examples, 20 ml of the suspension water of an active ingredient, which had been adjusted to have a concentration shown in Table 10, was sprayed in a frame of 45 cm×45 cm in which a pot of wheat seedlings was placed (corresponding to 1000 L/ha) 14 days after seeding. On day 14 after seeding, conidiospores of powdery mildew were sifted over leaves of wheat seedlings and inoculated onto the leaves (after the sprayed liquid was dried in the case of Comparative Examples), a lesion area ratio of powdery mildew in a first leaf was investigated 21 days after seeding according to the criteria in Table 1, and the degree of disease occurrence was calculated by the above calculation formula (1).

[1] = Table 19, Foliage Treatment, spray 50 ppm suspension water (corresponding to 50 g/ha) 14 days after seeding, untreated 45.0
[2] = Table 19, Foliage Treatment, spray 50 ppm suspension water (corresponding to 50 g/ha) 14 days after seeding, untreated 98.0
[3] = Table 19, Seed Treatment, 0.5 g/Seed 1 kg (corresponding to 50 g/ha), untreated 45.0
[4] = Table 19, Seed Treatment, 0.5 g/Seed 1 kg (corresponding to 50 g/ha), untreated 98.0
[5] = Table 12 run (different day), Foliage Treatment, spray 5 ppm (5 g/ha)
[6] = Table 12 run (different day), Foliage Treatment, spray 10 ppm (10 g/ha)
[7] = Table 12 run (different day), Seed Treatment 0.05 g/Seed 1 kg (5 g/ha)
[8] = Table 12 run (different day), Seed Treatment 0.1 g/Seed 1 kg (10 g/ha)
[9] = Table 13 run (different day), Foliage Treatment, spray 5 ppm (5 g/ha)
[10] = Table 13 run (different day), Foliage Treatment, spray 10 ppm (10 g/ha)
[11] = Table 13 run (different day), Foliage Treatment, spray 50 ppm (50 g/ha)
[12] = Table 13 run (different day), Seed Treatment 0.05 g/Seed 1 kg (5 g/ha)
[13] = Table 13 run (different day), Seed Treatment 0.1 g/Seed 1 kg (10 g/ha)
[14] = Table 13 run (different day), Seed Treatment 0.5 g/Seed 1 kg (50 g/ha)
[15] = Table 10 run, Foliage Treatment, spray 5 ppm (5 g/ha) day 14, first leaf, 21 days after seeding
[16] = Table 10 run, Foliage Treatment, spray 10 ppm (10 g/ha) day 14, first leaf, 21 days after seeding
[17] = Table 10 run, Seed Treatment 0.05 g/Seed 1 kg (5 g/ha), first leaf, 21 days after seeding
[18] = Table 10 run, Seed Treatment 0.1 g/Seed 1 kg (10 g/ha), first leaf, 21 days after seeding
[19] = Table 12 run (different day), Foliage Treatment, spray 50 ppm (50 g/ha)
[20] = Table 12 run (different day), Seed Treatment 0.5 g/Seed 1 kg (50 g/ha)
[21] = Table 10 run, Foliage Treatment, spray 50 ppm (50 g/ha) day 14, first leaf, 21 days after seeding
[22] = Table 10 run, Foliage Treatment, spray 100 ppm (100 g/ha) day 14, first leaf, 21 days after seeding
[23] = Table 10 run, Seed Treatment 0.5 g/Seed 1 kg (50 g/ha), first leaf, 21 days after seeding
[24] = Table 10 run, Seed Treatment 1 g/Seed 1 kg (100 g/ha), first leaf, 21 days after seeding
[25] = Table 11 run (different day), Foliage Treatment, spray 10 ppm (10 g/ha)
[26] = Table 11 run (different day), Foliage Treatment, spray 50 ppm (50 g/ha)
[27] = Table 11 run (different day), Seed Treatment 0.1 g/Seed 1 kg (10 g/ha)
[28] = Table 11 run (different day), Seed Treatment 0.5 g/Seed 1 kg (50 g/ha)

## N/C(=N\O)c1snc(Cl)c1Cl [Compound (17)]
Septoria leaf blotch; [1]
  Degree of Disease Occurrence: 38.3
Septoria leaf blotch; [2]
  Disease Leaf Rate (%): 99.7%
Septoria leaf blotch; Table 19, Foliage Treatment, spray 100 ppm suspension water (corresponding to 100 g/ha) 14 days after seeding, untreated 45.0
  Degree of Disease Occurrence: 36.7
Septoria leaf blotch; Table 19, Foliage Treatment, spray 100 ppm suspension water (corresponding to 100 g/ha) 14 days after seeding, untreated 98.0
  Disease Leaf Rate (%): 94.9%
Septoria leaf blotch; [3]
  Degree of Disease Occurrence: 29.4
Septoria leaf blotch; [4]
  Disease Leaf Rate (%): 82.5%
Septoria leaf blotch; Table 19, Seed Treatment, 1 g/Seed 1 kg (corresponding to 100 g/ha), untreated 45.0
  Degree of Disease Occurrence: 20.9
Septoria leaf blotch; Table 19, Seed Treatment, 1 g/Seed 1 kg (corresponding to 100 g/ha), untreated 98.0
  Disease Leaf Rate (%): 78.8%
Powdery mildew; [5]
  Degree of Disease Occurrence: 45.0
  Disease Leaf Rate (%): 93.3%
Powdery mildew; [6]
  Degree of Disease Occurrence: 43.3
  Disease Leaf Rate (%): 80.0%
Powdery mildew; [7]
  Degree of Disease Occurrence: 23.3
  Disease Leaf Rate (%): 66.7%
Powdery mildew; [8]
  Degree of Disease Occurrence: 10.4
  Disease Leaf Rate (%): 25.0%
Powdery mildew; [9]
  Degree of Disease Occurrence: 85.8
  Disease Leaf Rate (%): 100.0%
Powdery mildew; [10]
  Degree of Disease Occurrence: 62.4
  Disease Leaf Rate (%): 95.8%
Powdery mildew; [11]
  Degree of Disease Occurrence: 42.4
  Disease Leaf Rate (%): 90.6%
Powdery mildew; [12]
  Degree of Disease Occurrence: 66.7
  Disease Leaf Rate (%): 100.0%
Powdery mildew; [13]
  Degree of Disease Occurrence: 47.9
  Disease Leaf Rate (%): 100.0%
Powdery mildew; [14]
  Degree of Disease Occurrence: 33.1
  Disease Leaf Rate (%): 83.8%

## NC(=O)c1snc(Cl)c1Cl [Compound (9)]
Powdery mildew; [15]
  Degree of Disease Occurrence: 57.3
  Disease Leaf Rate (%): 100.0%
Powdery mildew; [16]
  Degree of Disease Occurrence: 63.5
  Disease Leaf Rate (%): 100.0%
Powdery mildew; [17]
  Degree of Disease Occurrence: 38.3
  Disease Leaf Rate (%): 96.9%
Powdery mildew; [18]
  Degree of Disease Occurrence: 33.0
  Disease Leaf Rate (%): 83.9%

## CCNC(=N)c1snc(Cl)c1Cl [Compound (15)]
Septoria leaf blotch; [1]
  Degree of Disease Occurrence: 39.2
Septoria leaf blotch; [2]
  Disease Leaf Rate (%): 93.6%
Septoria leaf blotch; [3]
  Degree of Disease Occurrence: 10.3
Septoria leaf blotch; [4]
  Disease Leaf Rate (%): 41.3%
Powdery mildew; [5]
  Degree of Disease Occurrence: 66.7
  Disease Leaf Rate (%): 100.0%
Powdery mildew; [6]
  Degree of Disease Occurrence: 80.0
  Disease Leaf Rate (%): 93.3%
Powdery mildew; [19]
  Degree of Disease Occurrence: 38.3
  Disease Leaf Rate (%): 60.0%
Powdery mildew; [7]
  Degree of Disease Occurrence: 40.8
  Disease Leaf Rate (%): 70.0%
Powdery mildew; [8]
  Degree of Disease Occurrence: 31.3
  Disease Leaf Rate (%): 60.0%
Powdery mildew; [20]
  Degree of Disease Occurrence: 11.9
  Disease Leaf Rate (%): 34.4%
Powdery mildew; Table 14, Foliage Treatment, spray 50 ppm suspension water (corresponding to 50 g/ha) 14 days after seeding, untreated 70.0
  Degree of Disease Occurrence: 47.9
Powdery mildew; Table 14, Foliage Treatment, spray 50 ppm suspension water (corresponding to 50 g/ha) 14 days after seeding, untreated 100.0
  Disease Leaf Rate (%): 100.0%
Powdery mildew; Table 14, Seed Treatment, 0.5 g/Seed 1 kg (corresponding to 50 g/ha), first leaf, 21 days after seeding, untreated 70.0
  Degree of Disease Occurrence: 13.1
Powdery mildew; Table 14, Seed Treatment, 0.5 g/Seed 1 kg (corresponding to 50 g/ha), first leaf, 21 days after seeding, untreated 100.0
  Disease Leaf Rate (%): 37.5%

## N#Cc1snc(Cl)c1Cl [Compound (2)]
Septoria leaf blotch; Table 16, Foliage Treatment, spray 100 ppm suspension water (corresponding to 100 g/ha) 14 days after seeding, untreated 57.1
  Degree of Disease Occurrence: 51.0
Septoria leaf blotch; Table 16, Foliage Treatment, spray 100 ppm suspension water (corresponding to 100 g/ha) 14 days after seeding, untreated 93.3
  Disease Leaf Rate (%): 100.0%
Septoria leaf blotch; Table 16, Seed Treatment, 1 g/Seed 1 kg (corresponding to 100 g/ha), untreated 57.1
  Degree of Disease Occurrence: 37.5
Septoria leaf blotch; Table 16, Seed Treatment, 1 g/Seed 1 kg (corresponding to 100 g/ha), untreated 93.3
  Disease Leaf Rate (%): 81.3%
Powdery mildew; [16]
  Degree of Disease Occurrence: 59.4
  Disease Leaf Rate (%): 100.0%
Powdery mildew; [21]
  Degree of Disease Occurrence: 56.3
  Disease Leaf Rate (%): 100.0%
Powdery mildew; [22]
  Degree of Disease Occurrence: 47.9
  Disease Leaf Rate (%): 95.8%
Powdery mildew; [18]
  Degree of Disease Occurrence: 45.9
  Disease Leaf Rate (%): 100.0%
Powdery mildew; [23]
  Degree of Disease Occurrence: 41.0
  Disease Leaf Rate (%): 93.8%
Powdery mildew; [24]
  Degree of Disease Occurrence: 28.9
  Disease Leaf Rate (%): 87.5%

## CC(=O)OCc1snc(Cl)c1Cl [Compound (4)]
Powdery mildew; [25]
  Degree of Disease Occurrence: 100.0
  Disease Leaf Rate (%): 100%
Powdery mildew; [26]
  Degree of Disease Occurrence: 90.6
  Disease Leaf Rate (%): 100%
Powdery mildew; [27]
  Degree of Disease Occurrence: 74.1
  Disease Leaf Rate (%): 100%
Powdery mildew; [28]
  Degree of Disease Occurrence: 57.2
  Disease Leaf Rate (%): 100%
Powdery mildew; [10]
  Degree of Disease Occurrence: 81.7
  Disease Leaf Rate (%): 100.0%
Powdery mildew; [11]
  Degree of Disease Occurrence: 71.5
  Disease Leaf Rate (%): 100.0%
Powdery mildew; [13]
  Degree of Disease Occurrence: 47.9
  Disease Leaf Rate (%): 100.0%
Powdery mildew; [14]
  Degree of Disease Occurrence: 49.1
  Disease Leaf Rate (%): 100.0%

## O=C(OCc1snc(Cl)c1Cl)c1ccccc1 [Compound (5)]
Powdery mildew; [26]
  Degree of Disease Occurrence: 90.5
  Disease Leaf Rate (%): 100%
Powdery mildew; [28]
  Degree of Disease Occurrence: 57.0
  Disease Leaf Rate (%): 95%
Powdery mildew; [9]
  Degree of Disease Occurrence: 100.0
  Disease Leaf Rate (%): 100.0%
Powdery mildew; [10]
  Degree of Disease Occurrence: 62.4
  Disease Leaf Rate (%): 100.0%
Powdery mildew; [11]
  Degree of Disease Occurrence: 86.7
  Disease Leaf Rate (%): 100.0%
Powdery mildew; [12]
  Degree of Disease Occurrence: 66.1
  Disease Leaf Rate (%): 100.0%
Powdery mildew; [13]
  Degree of Disease Occurrence: 58.1
  Disease Leaf Rate (%): 100.0%
Powdery mildew; [14]
  Degree of Disease Occurrence: 40.6
  Disease Leaf Rate (%): 95.0%
